Data published in patent US20240156773A1, “METHOD FOR INCREASING BLOOD DECANOIC ACID CONCENTRATION, BLOOD-DECANOIC-ACID-CONCENTRATION-INCREASING AGENT, PHARMACEUTICAL COMPOSITION, AND FOOD COMPOSITION” (The Nisshin OilliO Group, Ltd., priority 2021, published 2024).

Experiment: Administration test of triglyceride to rat: blood decanoic acid concentration
Conditions: in vivo, po
Description: Male SD rats aged 7 weeks (Japan SLC, Inc.) were kept using a TPX cage (W21.8×D37.3×H18.1 cm) with three rats or less/cage. The rats were fed ad libitum with solid feed “Labo MR stock” (Nosan Corporation.) sterilized with radiation throughout the feeding period, and fasted about 16 hours before the administration of a test fat and oil sample. The rats were fed ad libitum with distilled water as drinking water using a water supply bottle. The acclimation period was a week, and it was confirmed that abnormalities of general conditions were not observed on the final day of the acclimation period, and body weight was measured using an electronic scale (GX-3000; A & D Company, Limited). The rats were divided into 6 groups for each test fat and oil sample using a grouping software (Statlight; Yukms Co., Ltd.) so that the body weight of the groups was almost equal (6 rats in each group).
Each TG was orally administered in a single dose at 1 mL/body using a 1 mL disposable syringe and a disposable gastric tube for rats. […]
To the extracted lipid fraction, 2 ml of a 0.5 mol/L NaOH-methanol solution was added. […] The hexane layer was transferred to a vial, and used for GC (Agilent Technologies) in the conditions shown in Table 3, and the blood decanoic acid concentration was determined by the internal standard method. […]

SMILES: CCCCCCCCCC(=O)OCC(COC(=O)CCCCCCCCC)OC(=O)CCCCCCCCC [TG1, tridecanoin]
- Blood decanoic acid concentration, average value: 124.4 µM
